Source: US20020137929A1, “1 - (3-heterocyclylphenyl) isothiourea, -isourea, -guanidine and -amidine herbicidal agents” (Intellectual Property Department, BASF Aktiengesellschaft, priority 1998, published 2002)

Legend:
ZEAMX (Corn, Field) [1] = assay: Preemergence herbicidal evaluation; format: in vivo, Zea mays; conditions: rated 4-5 weeks after treatment
Method in brief: (§1)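 Steps: mix seeds into potting soil; plant atop ~1 inch soil; spray compound in aqueous acetone (~0.0156-0.500 kg/ha equivalent); maintain in greenhouse with watering; rate visually 0-9 versus control at 4-5 weeks.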

CYPSE (Flatsedge) = assay: Preemergence weed control under flooded paddy conditions; format: in vivo, Cyperus serotinus; conditions: rated 3-4 weeks after treatment
Method in brief: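 Seeds or propagules sown in top 0.5 cm of silt loam soil, flooded 1.5 to 3 cm above surface throughout. Compound in 50/50 v/v aqueous/acetone pipetted into flood water at about 0.0313 to 0.500 kg/ha. Visual 0-9 rating versus control after three to four weeks in greenhouse.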

CASOB (Sicklepod) = assay: Postemergence herbicidal evaluation; format: in vivo, Cassia obtusifolia; conditions: postemergence
Method in brief: (§2)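 Seedlings grown about two weeks were sprayed at 40 psi with compound dispersed in 50/50 acetone/water plus 0.5% TWEEN 20, at about 0.0156 to 0.500 kg/ha. Plants were kept in the greenhouse and scored 4–5 weeks later on a 0–9 visual scale against untreated controls.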

AMBEL (Ragweed, Common) = assay: Preemergence herbicidal evaluation; format: in vivo, Ambrosia artemisifolia; conditions: rated 4-5 weeks after treatment
Method in brief: as §1

CYPIR (Rice Flatsedge) = assay: Preemergence weed control under flooded paddy conditions; format: in vivo, Cyperus iria; conditions: rated 3-4 weeks after treatment
Method in brief: (§3)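 Herbicidal effect is scored visually on a 0-9 scale against an untreated control, three to four weeks after compounds are pipetted into the flood water (1.5 to 3 cm deep) over seeds planted in silt loam at 0.5 cm depth. Rates: about 0.0313 to 0.500 kg/ha.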

ZEAMX (Corn, Field) [2] = assay: Postemergence herbicidal evaluation; format: in vivo, Zea mays; conditions: postemergence
Method in brief: as §2

[3] = test system: IPOHE (Morningglory, Ivyleaf); assay: Preemergence herbicidal evaluation; format: in vivo, Ipomoea hederacea; conditions: rated 4-5 weeks after treatment
Method in brief: as §1

ORYSAT (Rice, Tebonnet) = assay: Preemergence herbicidal evaluation; format: in vivo, Oryza sativa, (L.) Tebonnet; conditions: rated 4-5 weeks after treatment
Method in brief: as §1

[4] = test system: ECHORC (Watergrass (Calif.)); assay: Preemergence weed control under flooded paddy conditions; format: in vivo, Echinochloa oryzoides; conditions: rated 3-4 weeks after treatment
Method in brief: as §3

[5] = test system: TRZAWR (Wheat, Winter, cv Riband); assay: Preemergence herbicidal evaluation; format: in vivo, Triticum aestivum; conditions: rated 4-5 weeks after treatment
Method in brief: as §1

GALAP (Galium) = assay: Postemergence herbicidal evaluation; format: in vivo, Galium aparine; conditions: postemergence
Method in brief: as §2

[6] = test system: CHEAL (Lambsquarters, Common); assay: Preemergence herbicidal evaluation; format: in vivo, Chenopodium album; conditions: rated 4-5 weeks after treatment
Method in brief: as §1

Cn1c(C(F)(F)F)cc(=O)n(-c2cc(N=C3SCC(=O)N3CC(=O)OC3CCCC3)c(Cl)cc2F)c1=O [Compound 120, Cyclopentyl 2-{{2-chloro-5-[3,6-dihydro-3-methyl-2,6-dioxo-4-(trifluoromethyl)-1(2H)-pyrimidinyl]-4-fluorophenyl}imino}-4-oxo-3-thiazolidineacetate]
Preemergence herbicidal rating ZEAMX (ZEAMX (Corn, Field) [1]; rate 0.0156 kg/ha): 0.0
Preemergence herbicidal rating ZEAMX (ZEAMX (Corn, Field) [1]; rate 0.0313 kg/ha): 0.0
Preemergence herbicidal rating ZEAMX (ZEAMX (Corn, Field) [1]; rate 0.0625 kg/ha): 0.0
Preemergence herbicidal rating ZEAMX (ZEAMX (Corn, Field) [1]; rate 0.1250 kg/ha): 0.0
Preemergence herbicidal rating ZEAMX (ZEAMX (Corn, Field) [1]; rate 0.2500 kg/ha): 3.0
herbicidal effect rating, CYPSE (CYPSE (Flatsedge); 0.0313 kg/ha): 0.0
herbicidal effect rating, CYPSE (CYPSE (Flatsedge); 0.0625 kg/ha): 0.0
herbicidal effect rating, CYPSE (CYPSE (Flatsedge); 0.1250 kg/ha): 0.0
herbicidal effect rating, CYPSE (CYPSE (Flatsedge); 0.2500 kg/ha): 3.5
Herbicidal rating CASOB (CASOB (Sicklepod); rate 0.0156 kg/ha): 3.0
Herbicidal rating CASOB (CASOB (Sicklepod); rate 0.0313 kg/ha): 5.0
Herbicidal rating CASOB (CASOB (Sicklepod); rate 0.0625 kg/ha): 8.0
Preemergence herbicidal rating AMBEL (AMBEL (Ragweed, Common); rate 0.0156 kg/ha): 0.0
Preemergence herbicidal rating AMBEL (AMBEL (Ragweed, Common); rate 0.0313 kg/ha): 0.0
Preemergence herbicidal rating AMBEL (AMBEL (Ragweed, Common); rate 0.0625 kg/ha): 3.0
Preemergence herbicidal rating AMBEL (AMBEL (Ragweed, Common); rate 0.1250 kg/ha): 4.0
Preemergence herbicidal rating AMBEL (AMBEL (Ragweed, Common); rate 0.2500 kg/ha): 4.0
herbicidal effect rating, CYPIR (CYPIR (Rice Flatsedge); 0.0313 kg/ha): 2.0
herbicidal effect rating, CYPIR (CYPIR (Rice Flatsedge); 0.0625 kg/ha): 2.5
herbicidal effect rating, CYPIR (CYPIR (Rice Flatsedge); 0.1250 kg/ha): 3.5
herbicidal effect rating, CYPIR (CYPIR (Rice Flatsedge); 0.2500 kg/ha): 9.0
Herbicidal rating ZEAMX (ZEAMX (Corn, Field) [2]; rate 0.0156 kg/ha): 6.0
Herbicidal rating ZEAMX (ZEAMX (Corn, Field) [2]; rate 0.0313 kg/ha): 7.0
Herbicidal rating ZEAMX (ZEAMX (Corn, Field) [2]; rate 0.0625 kg/ha): 8.0
Preemergence herbicidal rating IPOHE ([3]; rate 0.0156 kg/ha): 0.0
Preemergence herbicidal rating IPOHE ([3]; rate 0.0313 kg/ha): 0.0
Preemergence herbicidal rating IPOHE ([3]; rate 0.0625 kg/ha): 0.0
Preemergence herbicidal rating IPOHE ([3]; rate 0.1250 kg/ha): 4.0
Preemergence herbicidal rating IPOHE ([3]; rate 0.2500 kg/ha): 9.0
Preemergence herbicidal rating ORYSAT (ORYSAT (Rice, Tebonnet); rate 0.0156 kg/ha): 0.0
Preemergence herbicidal rating ORYSAT (ORYSAT (Rice, Tebonnet); rate 0.0313 kg/ha): 0.0
Preemergence herbicidal rating ORYSAT (ORYSAT (Rice, Tebonnet); rate 0.0625 kg/ha): 0.0
Preemergence herbicidal rating ORYSAT (ORYSAT (Rice, Tebonnet); rate 0.1250 kg/ha): 0.0
Preemergence herbicidal rating ORYSAT (ORYSAT (Rice, Tebonnet); rate 0.2500 kg/ha): 0.0
herbicidal effect rating, ECHORC ([4]; 0.0313 kg/ha): 7.0
herbicidal effect rating, ECHORC ([4]; 0.0625 kg/ha): 8.0
herbicidal effect rating, ECHORC ([4]; 0.1250 kg/ha): 9.0
herbicidal effect rating, ECHORC ([4]; 0.2500 kg/ha): 9.0
Preemergence herbicidal rating TRZAWR ([5]; rate 0.0156 kg/ha): 0.0
Preemergence herbicidal rating TRZAWR ([5]; rate 0.0313 kg/ha): 0.0
Preemergence herbicidal rating TRZAWR ([5]; rate 0.0625 kg/ha): 0.0
Preemergence herbicidal rating TRZAWR ([5]; rate 0.1250 kg/ha): 0.0
Preemergence herbicidal rating TRZAWR ([5]; rate 0.2500 kg/ha): 4.0
Herbicidal rating GALAP (GALAP (Galium); rate 0.0156 kg/ha): 2.0
Herbicidal rating GALAP (GALAP (Galium); rate 0.0313 kg/ha): 3.0
Herbicidal rating GALAP (GALAP (Galium); rate 0.0625 kg/ha): 3.0
Preemergence herbicidal rating CHEAL ([6]; rate 0.0156 kg/ha): 9.0
Preemergence herbicidal rating CHEAL ([6]; rate 0.0313 kg/ha): 9.0
Preemergence herbicidal rating CHEAL ([6]; rate 0.0625 kg/ha): 9.0
Preemergence herbicidal rating CHEAL ([6]; rate 0.1250 kg/ha): 9.0
Preemergence herbicidal rating CHEAL ([6]; rate 0.2500 kg/ha): 9.0

Cc1ccccc1CN1C(=O)CSC1=Nc1cc(-n2c(=O)cc(C(F)(F)F)n(C)c2=O)c(F)cc1Cl [Compound 129, 3-{4-Chloro-2-fluoro-5-{[3-(o-methylbenzyl)-4-oxo-2-thiazolidinylidene]amino}phenyl}-1-methyl-6-(trifluoromethyl)-2,4 (1H,3H)-pyrimidinedione]
Preemergence herbicidal rating ZEAMX (ZEAMX (Corn, Field) [1]; rate 0.0156 kg/ha): 0.0
Preemergence herbicidal rating ZEAMX (ZEAMX (Corn, Field) [1]; rate 0.0313 kg/ha): 0.0
Preemergence herbicidal rating ZEAMX (ZEAMX (Corn, Field) [1]; rate 0.0625 kg/ha): 0.0
Preemergence herbicidal rating ZEAMX (ZEAMX (Corn, Field) [1]; rate 0.1250 kg/ha): 1.0
Preemergence herbicidal rating ZEAMX (ZEAMX (Corn, Field) [1]; rate 0.2500 kg/ha): 1.0
herbicidal effect rating, CYPSE (CYPSE (Flatsedge); 0.1250 kg/ha): 7.0
herbicidal effect rating, CYPSE (CYPSE (Flatsedge); 0.2500 kg/ha): 9.0
Herbicidal rating CASOB (CASOB (Sicklepod); rate 0.0156 kg/ha): 3.0
Herbicidal rating CASOB (CASOB (Sicklepod); rate 0.0313 kg/ha): 4.0
Herbicidal rating CASOB (CASOB (Sicklepod); rate 0.0625 kg/ha): 4.0
Preemergence herbicidal rating AMBEL (AMBEL (Ragweed, Common); rate 0.0156 kg/ha): 0.0
Preemergence herbicidal rating AMBEL (AMBEL (Ragweed, Common); rate 0.0313 kg/ha): 0.0
Preemergence herbicidal rating AMBEL (AMBEL (Ragweed, Common); rate 0.0625 kg/ha): 0.0
Preemergence herbicidal rating AMBEL (AMBEL (Ragweed, Common); rate 0.1250 kg/ha): 7.0
Preemergence herbicidal rating AMBEL (AMBEL (Ragweed, Common); rate 0.2500 kg/ha): 7.0
herbicidal effect rating, CYPIR (CYPIR (Rice Flatsedge); 0.0313 kg/ha): 4.0
herbicidal effect rating, CYPIR (CYPIR (Rice Flatsedge); 0.0625 kg/ha): 5.0
herbicidal effect rating, CYPIR (CYPIR (Rice Flatsedge); 0.1250 kg/ha): 7.0
herbicidal effect rating, CYPIR (CYPIR (Rice Flatsedge); 0.2500 kg/ha): 9.0
Herbicidal rating ZEAMX (ZEAMX (Corn, Field) [2]; rate 0.0156 kg/ha): 4.0
Herbicidal rating ZEAMX (ZEAMX (Corn, Field) [2]; rate 0.0313 kg/ha): 4.5
Herbicidal rating ZEAMX (ZEAMX (Corn, Field) [2]; rate 0.0625 kg/ha): 4.5
Preemergence herbicidal rating IPOHE ([3]; rate 0.0156 kg/ha): 0.0
Preemergence herbicidal rating IPOHE ([3]; rate 0.0313 kg/ha): 0.0
Preemergence herbicidal rating IPOHE ([3]; rate 0.0625 kg/ha): 0.0
Preemergence herbicidal rating IPOHE ([3]; rate 0.1250 kg/ha): 9.0
Preemergence herbicidal rating IPOHE ([3]; rate 0.2500 kg/ha): 9.0
Preemergence herbicidal rating ORYSAT (ORYSAT (Rice, Tebonnet); rate 0.0156 kg/ha): 0.0
Preemergence herbicidal rating ORYSAT (ORYSAT (Rice, Tebonnet); rate 0.0313 kg/ha): 0.0
Preemergence herbicidal rating ORYSAT (ORYSAT (Rice, Tebonnet); rate 0.0625 kg/ha): 1.0
Preemergence herbicidal rating ORYSAT (ORYSAT (Rice, Tebonnet); rate 0.1250 kg/ha): 1.0
Preemergence herbicidal rating ORYSAT (ORYSAT (Rice, Tebonnet); rate 0.2500 kg/ha): 3.0
herbicidal effect rating, ECHORC ([4]; 0.0313 kg/ha): 9.0
herbicidal effect rating, ECHORC ([4]; 0.0625 kg/ha): 9.0
herbicidal effect rating, ECHORC ([4]; 0.1250 kg/ha): 9.0
herbicidal effect rating, ECHORC ([4]; 0.2500 kg/ha): 9.0
Preemergence herbicidal rating TRZAWR ([5]; rate 0.0156 kg/ha): 0.0
Preemergence herbicidal rating TRZAWR ([5]; rate 0.0313 kg/ha): 0.0
Preemergence herbicidal rating TRZAWR ([5]; rate 0.0625 kg/ha): 0.0
Preemergence herbicidal rating TRZAWR ([5]; rate 0.1250 kg/ha): 1.0
Preemergence herbicidal rating TRZAWR ([5]; rate 0.2500 kg/ha): 1.0
Herbicidal rating GALAP (GALAP (Galium); rate 0.0156 kg/ha): 2.0
Herbicidal rating GALAP (GALAP (Galium); rate 0.0313 kg/ha): 4.0
Herbicidal rating GALAP (GALAP (Galium); rate 0.0625 kg/ha): 4.0
Preemergence herbicidal rating CHEAL ([6]; rate 0.0156 kg/ha): 4.0
Preemergence herbicidal rating CHEAL ([6]; rate 0.0313 kg/ha): 3.0
Preemergence herbicidal rating CHEAL ([6]; rate 0.0625 kg/ha): 9.0
Preemergence herbicidal rating CHEAL ([6]; rate 0.1250 kg/ha): 9.0
Preemergence herbicidal rating CHEAL ([6]; rate 0.2500 kg/ha): 9.0
